Values of other authors in US9186326B2 (Kimia Zist Parsian (KZP), priority 2014, dated 2015).

System: glucocorticoid effect

In the case of Dexamethasone, the mineral corticoid effect is listed as “minimal mineral corticoid effect” and the “potency relative to cortisol in glucocorticoid effect” value (versus cortisol) is listed as “twenty five”.
